Experimental data: patent publication EP0968651A1, “Pesticidal method and composition” (RHONE-POULENC A[…]., priority 1998, dated 2000)

System: vine weevil
Assay: Drench treatments of potted Fuchsia triphylla hybrid cv. Koralle infested with vine weevil eggs (curative)
Type: in vivo
Settings: curative drench treatment; after 6 months
Protocol: In 20-replicate tests, Fuchsia triphylla hybrid cv. Koralle was infested with 15 eggs per pot of vine weevil. Compound A in the form of an 80% water dispersible granule (Regent 800 WG) was suspended in water and added to each pot at the indicated rate per surface area of the pot at various dilutions. After 6 months, the trials were assessed.

SMILES: N#Cc1nn(-c2c(Cl)cc(C(F)(F)F)cc2Cl)c(N)c1[S+]([O-])C(F)(F)F (stereo not shown) [Compound A, 5-amino-1-(2,6-dichloro 4-trifluoromethylphenyl) 4-trifluoromethylsulfinyl-3-cyanopyrazole]
- protection of the plants compared with fonofos: protected the plants substantially better than the commercial standard fonofos
